Results published in patent US6339069B1, “Peptide-lipid conjugates, liposomes and lipsomal drug delivery” (Elan PharmaceuticalsTechnologies, Inc., priority 1996, dated 2002).

Tests used:
[1] = pH 7.4; cited from earlier work
[2] = target: T1, Human leukocyte elastase (HLE) (Homo sapiens, UniProt P08246); experiment: Cleavage of MeO-suc-ala-ala-pro-val-DOPE by HLE (TLC, 31P-NMR); type: biochemical; conditions: 2 hours
T1 construct: purchased Calbiochem (San Diego, Calif.)
T1 sequence (P08246 30-247 limits assumed): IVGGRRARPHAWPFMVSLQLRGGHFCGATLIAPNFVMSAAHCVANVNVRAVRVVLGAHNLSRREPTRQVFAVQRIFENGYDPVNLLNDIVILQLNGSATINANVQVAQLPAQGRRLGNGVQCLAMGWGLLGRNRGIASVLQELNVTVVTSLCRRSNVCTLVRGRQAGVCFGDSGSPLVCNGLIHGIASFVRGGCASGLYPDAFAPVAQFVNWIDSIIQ
Protocol: To determine if the peptide-lipid MeO-suc-ala-ala-pro-val-DOPE (SEQ ID NO:42) is also a suitable substrate for elastase mediated cleavage 50 nmol of MeO-suc-ala-ala-pro-val-DOPE liposomes (SUVs) were incubated with 0, 2.5, 5, 10, or 20 ug HLE (from Calbiochem; 20 units/mg protein; 1 unit=amount of enzyme that will hydrolyze 1.0 umol of MeO-suc-ala-ala-pro-val-pNA per min at 25 degrees C., pH 8.0) overnight at 37 degrees C. in 50 ul volume of 10 mM TES/ 154 mM NaCl/ 0.1 mM EDTA, pH 7.4, containing 1.5 mM Ca and 1.5 mM Mg.
Lipid was extracted using the Bligh-Dyer technique (chloroform/methanol/water: 2/1.7/1), dried under nitrogen, placed under high vacuum for ˜3 hours. Samples were resuspended in 5 ul chloroform and spotted onto TLC plates. 20 ug of pure DOPE was also spotted for comparison purposes. TLC solvent system was chloroform/methanol/ammonium hydroxide (65/25/5). Plates were air dried, sprayed with molybdenate blue, then charred at 180 degrees C.
MeO-suc-ala-ala-pro-val-DOPE liposomes were incubated with 0 or 5 ug HLE for 1, 2, 4 hours, or overnight and processed as above. The peptide was cleaved by HLE in as little as 1 hour at 37 degrees C.
The conversion of MeO-suc-AAPV-DOPE to DOPE (SEQ ID NO:42) was also quantitated by ^31P-NMR. […] A small shoulder that may indicate an incomplete peptide cleavage product was also observed near the original peptide-lipid peak. Treatment with 5 micrograms of elastase/100 nmol lipid yielded 20% DOPE. Longer incubation may have lead to further digestion, though multiple lamellae and/or the surface charge of the liposome may limit the ultimate amount digested. The maximum exposed peptide-lipid for intact liposomes would occur with unilamellar vesicles. Assuming only the outer leaflet peptide-lipid in unilamellar vesicles is available for digestion, the minimal percentage conversion of exposed MeO-suc-AAPV-DOPE (SEQ ID NO:42) to DOPE in the outer leaflet lipid of this preparation was 40% (FIG. 6, dotted line). If the average number of lamellae were greater than one, the percentage conversion was even higher. […]

[3] = system: S. caespitosus protease, peptidase, chymotrypsin, trypsin, protease type I; experiment: Cleavage of N-Ac-ala-ala-DOPE by other proteases (HPLC); type: biochemical; conditions: DOTAP/N-acetyl-ala-ala-PE 1:1 SUVs, 100 nmole, 0.5 or 1.0 mg enzyme, overnight, 37 degrees C.
Protocol: (§1) To compare the effect of different proteolytic enzymes on the cleavage of N-acetyl-ala-ala-DOPE, small unilamellar liposomes composed of DOTAP and N-acetyl-ala-ala-PE (1:1 molar ratio, 100 nmole), prepared as described hereinabove, were incubated overnight at 37 degrees C. with either 0.5 mg (experiment 1) or 1.0 mg (experiment 2) of: S. caespitosus protease, S. priseus (“pronase”), peptidase, chymotrypsin, trypsin, protease type I, proteinase K, or with no enzyme added.
(§2) Subsequently, lipid was extracted from these preparations by organic phase separation, and dried under vacuum. The dried lipid was suspended in ethanol, and the resulting lipidic solution was then injected into a normal phase silica column. Analysis was by HPLC, as described above. Lipid peaks were quantitated, and the amount of lipid cleavage was calculated as a percentage of the starting lipid.

[4] = target: proteinase K (Parengyodontium album, UniProt P06873); experiment: Proteinase K-mediated cleavage of N-Ac-AA-DOPE (TLC, 31P-NMR, HPLC); type: biochemical
Protocol: Several proteases were tested to determine whether an enzyme with similar substrate specificity could be used as a model for elastase mediated cleavage of N-Ac-AA-DOPE. Proteinase K is a serine protease that, similarly to elastase, can cleave at peptide bonds C-terminal to aliphatic residues.
Subsequently, proteinase K, which has a similar substrate specificity to elastase, was used to model the elastase effect because of the lower cost of the enzyme. Referring to FIG. 3, samples A and C contained pure N-acetyl-ala-ala-DOPE and pure DOPE, respectively; sample B consisted of multilamellar liposomes, prepared as described hereinbelow, composed of pure N-acetyl-ala-ala-DOPE (2 μmole total phospholipid), which were incubated in 200 μl of 154 mM NaCl, 10 mM TES, 0.1 mM EDTA at pH 7.4 and 37 ° C. for two hours in the presence of 1 mg of proteinase K. After the first incubation, another equal amount of proteinase K was added and the sample was incubated for another 2 hours. All three samples were dissolved into a final concentration of 5% deoxycholate, 50 mM EDTA and 10 mM HEPES at pH 8 for proton decoupled ^31P NMR.
The conversion of N-Ac-AA-DOPE to DOPE was also monitored by ^31P-NMR analysis. N-Ac-AA-DOPE LUVs were prepared and treated with or without proteinase K (1.5 mg protein/100 nmol lipid) overnight at 37° C. Samples were mixed with buffer (10% deoxycholate, 100 mM EDTA, 20 mM Hepes) and deuterium oxide (Cambridge Isotope Laboratories, Woburn, Mass.) (1:4:2) and transferred to 5 mm NMR tubes. Samples were monitored at room temperature in a Bruker AC300 spectrometer operating at 121.5 MHz, with […] 90° radio frequency pulse for proton decoupling and set to 2 sec interpulse delay to avoid signal saturation. Sweep width was set at 50 kHz. 1 Hz line broadening was applied to all spectra.
Elastase and proteinase K mediated cleavage of N-Ac-AA-DOPE was quantitated using liposomes composed of N-Ac-AA-DOPE and DOTAP, a positively charged lipid. DOTAP was included to provide a counterbalancing positive charge, and was used as a standard by which different samples could be normalized and compared. After treatment with elastase or proteinase K the reduction in the amount of N-Ac-AA-DOPE was monitored by HPLC (FIG. 4). Liposomes composed of DOTAP/N-Ac-AA-DOPE (1:1) were incubated with enzyme under given conditions. Lipid was extracted by the Bligh-Dyer procedure twice.
Collected lipid was dried under a N2 stream and exposed to vacuum for 4 hours-overnight. Samples were resuspended in 100% ethanol and injected in 30 ul aliquots into Spherisorb silica columns (150×4.6 mm, […], Keystone Scientific). HPLC was performed using a hexane:isopropanol:water:TFA mobile phase. Hexane and TFA were held constant at 37% and 0.2%, respectively. The N-Ac-AA-DOPE peak was detected using a gradient of 59-55% isopropanol:4-8% water. Flow rate was 1.5 ml/min, column temperature was set at 45° C., and peaks were detected by a UV detector set at 205 nm. Lipid peaks were quantitated in comparison to standard curves generated by injecting 5-200 nmol of DOTAP or N-Ac-AA-DOPE and monitoring 205 nm signal. Percent cleavage was calculated by normalizing peaks to DOTAP, then determining the decrease in N-Ac-AA-DOPE peak size relative to starting amounts.
To verify that the cleavage of N-Ac-AA-DOPE was due to proteinase K enzymatic activity, liposomes were treated with heat inactivated proteinase K. Proteinase K was inactivated by heating at 95° C. for 1 hour, after which the enzyme was incapable of cleaving the chromogenic substrate N-Ac-AAA-pNA. […] In these experiments liposomes, prepared as described hereinbelow, were composed of 100% N-Acetyl-ala-ala-DOPE and were then extruded to approximately 0.2 microns diameter. Fifty micrograms of liposomal lipid was incubated alone or with one unit of HLE overnight at 37° C. […]

[5] = system: S. griseus (“pronase”); experiment: Cleavage of N-Ac-ala-ala-DOPE by pronase (HPLC); type: biochemical; conditions: DOTAP/N-acetyl-ala-ala-PE 1:1 SUVs, 100 nmole, 0.5 or 1.0 mg enzyme, overnight, 37 degrees C.
Protocol: as §1, §2

[6] = target: T2, Human leukocyte elastase (Homo sapiens, UniProt P08246); experiment: Elastase-mediated cleavage of N-Ac-AA-DOPE to DOPE (TLC, HPLC); type: biochemical; conditions: overnight, 37° C.
T2 construct: purchased Calbiochem (San Diego, Calif.)
T2 sequence (P08246 30-247 limits assumed): T1 sequence (P08246 30-247 limits assumed)
Protocol: Cleavage of N-Ac-ala-ala-DOPE to DOPE by elastase was monitored by thin layer chromatography (TLC). The chemical structure of N-Ac-ala-ala-DOPE and its postulated scheme of conversion to DOPE by enzymatic cleavage is shown in FIG. 1. 100-200 nmol of N-Ac-AA-DOPE SUVs were incubated with 1 mg enzyme in 0.1 ml overnight at 37° C. Human leukocyte elastase was purchased from Calbiochem (San Diego, Calif.). Lipid was extracted by organic phase separation (Bligh and Dyer, 1959) twice. Collected lipid was dried under N^2 stream and exposed to vacuum for 4 hours-overnight. Samples were resuspended in chloroform and spotted onto TLC plates. […]
Elastase and proteinase K mediated cleavage of N-Ac-AA-DOPE was quantitated using liposomes composed of N-Ac-AA-DOPE and DOTAP, a positively charged lipid. […] After treatment with elastase or proteinase K the reduction in the amount of N-Ac-AA-DOPE was monitored by HPLC (FIG. 4). […]
Collected lipid was dried under a N2 stream and exposed to vacuum for 4 hours-overnight. […] The N-Ac-AA-DOPE peak was detected using a gradient of 59-55% isopropanol:4-8% water. Flow rate was 1.5 ml/min, column temperature was set at 45° C., and peaks were detected by a UV detector set at 205 nm. Lipid peaks were quantitated in comparison to standard curves generated by injecting 5-200 nmol of DOTAP or N-Ac-AA-DOPE and monitoring 205 nm signal. […]

Sequence of proteinase K (P06873 106-384, species assumed): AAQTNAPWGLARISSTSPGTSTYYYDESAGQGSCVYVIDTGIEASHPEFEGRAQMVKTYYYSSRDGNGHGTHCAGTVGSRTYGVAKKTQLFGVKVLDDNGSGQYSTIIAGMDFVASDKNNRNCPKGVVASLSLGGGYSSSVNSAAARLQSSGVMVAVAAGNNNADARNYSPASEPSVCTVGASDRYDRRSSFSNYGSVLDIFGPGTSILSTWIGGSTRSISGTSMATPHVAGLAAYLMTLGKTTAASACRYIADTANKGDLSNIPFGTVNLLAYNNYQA

## CCCCCCCC/C=C\CCCCCCCC(=O)OCC(CN(C)C)OC(=O)CCCCCCC/C=C\CCCCCCCC (centres unmarked) [DODAP, 1-N,N-dimethylamino dioleoyl propane]
[1]
  DODAP population positively charged: 20%

## CCCCCCCC/C=C\CCCCCCCC(=O)OC[C@H](COP(=O)(O)OCCNC(=O)[C@@H](NC(=O)[C@@H]1CCCN1C(=O)[C@H](C)NC(=O)[C@H](C)NC(=O)CCC(=O)OC)C(C)C)OC(=O)CCCCCCC/C=C\CCCCCCCC [MeO-suc-AAPV-DOPE, 1,2-Dioleoyl-sn-glycero-3-phosphoethanolamido-val-pro-ala-ala-sucMeO]
[2]; DODAP/MeO-suc-AAPV-DOPE 1:1 vesicles, 5 micrograms of elastase/100 nmol lipid, 37° C.
  DOPE yielded from MeO-suc-AAPV-DOPE (31P-NMR): 20%
[2]; assuming approximately 2.5 lamellae per vesicle, 5 micrograms elastase/100 nmol lipid
  Available peptide-lipid cleaved: 100%
[2]; assuming unilamellar vesicles, 5 micrograms elastase/100 nmol lipid
  Minimal percentage conversion of exposed MeO-suc-AAPV-DOPE to DOPE in the outer leaflet: ≥ 40%

## CCCCCCCC/C=C\CCCCCCCC(=O)OCC(COP(=O)(O)OCCNC(=O)[C@H](C)NC(=O)[C@H](C)NC(C)=O)OC(=O)CCCCCCC/C=C\CCCCCCCC (some centres unmarked) [N-Ac-AA-DOPE, N-acetyl-alanyl-alanyl-dioleoyl phosphatidylethanolamine]
[3]
  Cleavage of N-Ac-ala-ala-DOPE from liposomes by other proteases (HPLC): did not cleave
[4]; DOTAP/N-Ac-AA-DOPE (1:1) liposomes, 1 mg protease/100 nmol lipid, overnight, 37° C.
  Cleavage of N-Ac-AA-DOPE by proteinase K (HPLC): cleaved N-Ac-AA-DOPE to a similar extent
[4]; DOTAP/N-Ac-AA-DOPE liposomes, proteinase K inactivated 95° C., 1 hour
  Cleavage of N-Ac-AA-DOPE by heat inactivated proteinase K (HPLC): did not result in any cleavage
[4]; DOTAP/N-acetyl-ala-ala-PE 1:1 SUVs, 100 nmole, 0.5 or 1.0 mg enzyme, overnight, 37 degrees C.
  Cleavage of N-Ac-ala-ala-DOPE from liposomes by proteinase K (HPLC): effected cleavage
[4]; LUVs, proteinase K 1.5 mg protease/100 nmol lipid, overnight, 37° C.
  Conversion of N-Ac-AA-DOPE to DOPE (31P-NMR): appearance of a peak 0.3 ppm upfield from N-Ac-AA-DOPE, corresponding with pure DOPE
[4]; N-Ac-AA-DOPE liposomes, 1 mg enzyme/100 nmol lipid, overnight, 37° C.
  Cleavage of N-Ac-AA-DOPE by proteinase K (TLC): the peptide-lipid was cleaved and DOPE was generated
[4]; multilamellar liposomes of pure conjugate, 1 mg proteinase K 2 hours + equal amount another 2 hours, pH 7.4, 37° C.
  N-acetyl-ala-ala-DOPE converted to pure DOPE (31P NMR integration): approximately 20%
[5]
  Cleavage of N-Ac-ala-ala-DOPE from liposomes by pronase (HPLC): effected cleavage
[6]; DOTAP/N-Ac-AA-DOPE (1:1) liposomes, 1 mg protease/100 nmol lipid
  Cleavage of N-Ac-AA-DOPE by elastase (HPLC): cleaved N-Ac-AA-DOPE to a similar extent
[6]; N-Ac-AA-DOPE SUVs, 1 mg enzyme in 0.1 ml
  Cleavage of N-Ac-AA-DOPE to DOPE by elastase (TLC): generated a product corresponding to DOPE
